# Experiments:
# [1] = system: ZEAMX (Corn, Field); test: Postemergence herbicidal evaluation; type: in vivo, Zea mays; conditions: postemergence
# In short: (§1)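 Visual 0–9 rating versus control (stand, vigor, malformation, size, chlorosis, overall appearance), taken four to five weeks post-spray. Two-week-old seedlings received roughly 0.0156–0.500 kg/ha active in acetone/water (50/50) with 0.5% TWEEN 20 via nozzle at 40 psi.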
# [2] = system: TRZAWR (Wheat, Winter, cv Riband); test: Postemergence herbicidal evaluation; type: in vivo, Triticum aestivum; conditions: postemergence
# In short: as §1
# [3] = system: SAGPY (Arrowhead (Pygmaea)); test: Postemergence weed control under flooded paddy conditions; type: in vivo, Sagittaria pygmaea; conditions: postemergence weeds
# In short: (§2)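 With weeds 3 to 5 cm tall and rice at the 1.5 to 2.5 leaf stage, containers were flooded and water held 1.5 to 3 cm above soil. Compounds in 50/50 v/v aqueous/acetone went into the flood water at about 0.0313 to 0.500 kg/ha a.i. Effects were visually rated 0–9 against controls after three to four weeks in the greenhouse.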
# [4] = system: ORYSAT (Rice, Tebonnet); test: Preemergence herbicidal evaluation; type: in vivo, Oryza sativa, (L.) Tebonnet; conditions: rated 4-5 weeks after treatment
# In short: (§3)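 Rating at 4–5 wk post-spray on a 0–9 visual scale vs control. Application: aqueous acetone, ~0.0156–0.500 kg/ha, to soil surface after seeding, preemergence.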
# [5] = system: CYPSE (Flatsedge); test: Preemergence weed control under flooded paddy conditions; type: in vivo, Cyperus serotinus; conditions: rated 3-4 weeks after treatment
# In short: (§4)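 Visual injury scored 0-9 against control three to four weeks post-treatment, greenhouse-grown. Application: acetone/water (50/50) solutions dosed directly into flood water (1.5-3 cm over silt loam, planted top 0.5 cm), roughly 0.0313 to 0.500 kg/ha active ingredient.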
# [6] = system: ECHCG (Barnyardgrass); test: Postemergence herbicidal evaluation; type: in vivo, Echinochloa crus-galli; conditions: postemergence
# In short: as §1
# [7] = system: CYPSE (Flatsedge); test: Postemergence weed control under flooded paddy conditions; type: in vivo, Cyperus serotinus; conditions: postemergence weeds
# In short: as §2
# [8] = system: MOOVA (Monochoria); test: Preemergence weed control under flooded paddy conditions; type: in vivo, Monochoria vaginalis; conditions: rated 3-4 weeks after treatment
# In short: as §4
# [9] = system: SAGPY (Arrowhead (Pygmaea)); test: as above; type: in vivo, Sagittaria pygmaea; conditions: rated 3-4 weeks after treatment
# In short: as §4
# [10] = system: ECHORC (Watergrass (Calif.)); test: as above; type: in vivo, Echinochloa oryzoides; conditions: rated 3-4 weeks after treatment
# In short: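 Silt loam, seeds in top 0.5 cm; flood held 1.5-3 cm; test cpd as acetone/water 50/50 into flood water, ~0.0313-0.500 kg/ha a.i.; greenhouse 3-4 wk; visual 0-9 score vs control.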
# [11] = system: ABUTH (Velvetleaf); test: Postemergence herbicidal evaluation; type: in vivo, Abutilon theophrasti; conditions: postemergence
# In short: as §1
# [12] = system: CASOB (Sicklepod); test: Postemergence herbicidal evaluation; type: in vivo, Cassia obtusifolia; conditions: postemergence
# In short: as §1
# [13] = system: TRZAWR (Wheat, Winter, cv Riband); test: Preemergence herbicidal evaluation; type: in vivo, Triticum aestivum; conditions: rated 4-5 weeks after treatment
# In short: as §3
# [14] = system: GLXMAW (Soybean, Williams); test: Preemergence herbicidal evaluation; type: in vivo, Glycine max, (L.) Merr. cv Williams; conditions: rated 4-5 weeks after treatment
# In short: as §3
# [15] = rate 0.0313 kg/ha, 3-4 weeks after treatment
# [16] = rate 0.0625 kg/ha, 3-4 weeks after treatment
# [17] = rate 0.1250 kg/ha, 3-4 weeks after treatment
# [18] = rate 0.2500 kg/ha, 3-4 weeks after treatment
# [19] = rate 0.5000 kg/ha, 3-4 weeks after treatment
# [20] = Rate 0.0313 kg/ha, rated 3 to 4 weeks after treatment
# [21] = Rate 0.0625 kg/ha, rated 3 to 4 weeks after treatment
# [22] = Rate 0.1250 kg/ha, rated 3 to 4 weeks after treatment
# [23] = Rate 0.2500 kg/ha, rated 3 to 4 weeks after treatment
compound,measurement,setting,value
CC1SC(=Nc2cc(N3C(=O)C4=C(CCCC4)C3=O)c(F)cc2Cl)N(C)C1=O (stereo not shown) [Compound 4],ZEAMX herbicidal rating,[1]; rate 0.0313 kg/ha,3.0
same,ZEAMX herbicidal rating,[1]; rate 0.0625 kg/ha,3.5
same,ZEAMX herbicidal rating,[1]; rate 0.1250 kg/ha,4.0
same,ZEAMX herbicidal rating,[1]; rate 0.2500 kg/ha,4.0
same,ZEAMX herbicidal rating,[1]; rate 0.5000 kg/ha,4.0
same,TRZAWR herbicidal rating,[2]; rate 0.0313 kg/ha,3.0
same,TRZAWR herbicidal rating,[2]; rate 0.0625 kg/ha,3.5
same,TRZAWR herbicidal rating,[2]; rate 0.1250 kg/ha,4.0
same,TRZAWR herbicidal rating,[2]; rate 0.2500 kg/ha,4.5
same,TRZAWR herbicidal rating,[2]; rate 0.5000 kg/ha,4.5
same,Herbicidal rating SAGPY,[3]; [15],0.0
same,Herbicidal rating SAGPY,[3]; [16],0.0
same,Herbicidal rating SAGPY,[3]; [17],0.0
same,Herbicidal rating SAGPY,[3]; [18],0.0
same,Herbicidal rating SAGPY,[3]; [19],0.0
same,ORYSAT preemergence herbicidal rating,[4]; rate 0.1250 kg/ha,0.0
same,ORYSAT preemergence herbicidal rating,[4]; rate 0.2500 kg/ha,2.0
same,ORYSAT preemergence herbicidal rating,[4]; rate 0.5000 kg/ha,4.0
same,Herbicidal rating CYPSE,[5]; 0.0313 kg/ha,0.0
same,Herbicidal rating CYPSE,[5]; 0.0625 kg/ha,0.0
same,Herbicidal rating CYPSE,[5]; 0.1250 kg/ha,0.0
same,Herbicidal rating CYPSE,[5]; 0.2500 kg/ha,0.0
same,Herbicidal rating CYPSE,[5]; 0.5000 kg/ha,0.0
same,ECHCG herbicidal rating,[6]; rate 0.0313 kg/ha,0.0
same,ECHCG herbicidal rating,[6]; rate 0.0625 kg/ha,0.0
same,ECHCG herbicidal rating,[6]; rate 0.1250 kg/ha,0.0
same,ECHCG herbicidal rating,[6]; rate 0.2500 kg/ha,4.0
same,ECHCG herbicidal rating,[6]; rate 0.5000 kg/ha,2.0
same,Herbicidal rating CYPSE,[7]; [15],0.0
same,Herbicidal rating CYPSE,[7]; [16],0.0
same,Herbicidal rating CYPSE,[7]; [17],0.0
same,Herbicidal rating CYPSE,[7]; [18],0.0
same,Herbicidal rating CYPSE,[7]; [19],0.0
same,Herbicidal rating MOOVA,[8]; 0.0313 kg/ha,2.0
same,Herbicidal rating MOOVA,[8]; 0.0625 kg/ha,7.0
same,Herbicidal rating MOOVA,[8]; 0.1250 kg/ha,8.0
same,Herbicidal rating MOOVA,[8]; 0.2500 kg/ha,9.0
same,Herbicidal rating MOOVA,[8]; 0.5000 kg/ha,9.0
same,Herbicidal rating SAGPY,[9]; 0.0313 kg/ha,0.0
same,Herbicidal rating SAGPY,[9]; 0.0625 kg/ha,0.0
same,Herbicidal rating SAGPY,[9]; 0.1250 kg/ha,0.0
same,Herbicidal rating SAGPY,[9]; 0.2500 kg/ha,0.0
same,Herbicidal rating SAGPY,[9]; 0.5000 kg/ha,0.0
same,Herbicidal rating ECHORC,[10]; 0.0313 kg/ha,2.0
same,Herbicidal rating ECHORC,[10]; 0.0625 kg/ha,4.0
same,Herbicidal rating ECHORC,[10]; 0.1250 kg/ha,7.0
same,Herbicidal rating ECHORC,[10]; 0.2500 kg/ha,8.0
same,Herbicidal rating ECHORC,[10]; 0.5000 kg/ha,9.0
same,ABUTH herbicidal rating,[11]; rate 0.0313 kg/ha,2.0
same,ABUTH herbicidal rating,[11]; rate 0.0625 kg/ha,4.0
same,ABUTH herbicidal rating,[11]; rate 0.1250 kg/ha,9.0
same,ABUTH herbicidal rating,[11]; rate 0.2500 kg/ha,9.0
same,ABUTH herbicidal rating,[11]; rate 0.5000 kg/ha,9.0
same,CASOB herbicidal rating,[12]; rate 0.0313 kg/ha,0.0
same,CASOB herbicidal rating,[12]; rate 0.0625 kg/ha,0.0
same,CASOB herbicidal rating,[12]; rate 0.1250 kg/ha,0.0
same,CASOB herbicidal rating,[12]; rate 0.2500 kg/ha,0.0
same,CASOB herbicidal rating,[12]; rate 0.5000 kg/ha,2.0
same,TRZAWR preemergence herbicidal rating,[13]; rate 0.1250 kg/ha,2.0
same,TRZAWR preemergence herbicidal rating,[13]; rate 0.2500 kg/ha,3.0
same,TRZAWR preemergence herbicidal rating,[13]; rate 0.5000 kg/ha,3.0
"CCOC(=O)CN1C(=O)C(Cc2ccccc2OC(C)C(=O)O)S/C1=N/c1cc(-n2c(=O)cc(C(F)(F)F)n(C)c2=O)c(F)cc1Cl (stereo not shown) [Compound 114, 5-[o-(1-Carboxyethoxy)benzyl]-2-{{2-chloro-5-[3,6-dihydro-3-methyl-2,6-dioxo-4-(trifluoromethyl)-1(2H)-pyrimidinyl]-4-fluorophenyl}imino}-4-oxo-3-thiazolidineacetic acid, 3-ethyl ester]",herbicidal rating ZEAMX,[1]; rate 0.0158 kg/ha,6.5
same,herbicidal rating ZEAMX,[1]; rate 0.0315 kg/ha,7.0
same,herbicidal rating ZEAMX,[1]; rate 0.0630 kg/ha,7.0
same,herbicidal rating TRZAWR,[2]; rate 0.0158 kg/ha,2.0
same,herbicidal rating TRZAWR,[2]; rate 0.0315 kg/ha,3.0
same,herbicidal rating TRZAWR,[2]; rate 0.0630 kg/ha,4.0
same,Herbicidal rating SAGPY,[3]; [20],0.0
same,Herbicidal rating SAGPY,[3]; [21],0.0
same,Herbicidal rating SAGPY,[3]; [22],0.0
same,Herbicidal rating SAGPY,[3]; [23],0.0
same,Preemergence herbicidal rating ORYSAT,[4]; rate 0.0156 kg/ha,0.0
same,Preemergence herbicidal rating ORYSAT,[4]; rate 0.0313 kg/ha,0.0
same,Preemergence herbicidal rating ORYSAT,[4]; rate 0.0625 kg/ha,0.0
same,Preemergence herbicidal rating ORYSAT,[4]; rate 0.1250 kg/ha,2.0
same,Preemergence herbicidal rating ORYSAT,[4]; rate 0.2500 kg/ha,2.0
same,CYPSE herbicidal effect rating,[5]; 0.0313 kg/ha,3.5
same,CYPSE herbicidal effect rating,[5]; 0.0625 kg/ha,4.5
same,CYPSE herbicidal effect rating,[5]; 0.1250 kg/ha,3.5
same,CYPSE herbicidal effect rating,[5]; 0.2500 kg/ha,4.5
same,herbicidal rating ECHCG,[6]; rate 0.0158 kg/ha,0.0
same,herbicidal rating ECHCG,[6]; rate 0.0315 kg/ha,1.0
same,herbicidal rating ECHCG,[6]; rate 0.0630 kg/ha,4.0
same,Preemergence herbicidal rating GLXMAW,[14]; rate 0.0156 kg/ha,0.0
same,Preemergence herbicidal rating GLXMAW,[14]; rate 0.0313 kg/ha,1.0
same,Preemergence herbicidal rating GLXMAW,[14]; rate 0.0625 kg/ha,0.0
same,Preemergence herbicidal rating GLXMAW,[14]; rate 0.1250 kg/ha,2.0
same,Preemergence herbicidal rating GLXMAW,[14]; rate 0.2500 kg/ha,3.0
same,Herbicidal rating CYPSE,[7]; [20],0.0
same,Herbicidal rating CYPSE,[7]; [21],0.0
same,Herbicidal rating CYPSE,[7]; [22],0.0
same,Herbicidal rating CYPSE,[7]; [23],0.0
same,MOOVA herbicidal effect rating,[8]; 0.0313 kg/ha,9.0
same,MOOVA herbicidal effect rating,[8]; 0.0625 kg/ha,9.0
same,MOOVA herbicidal effect rating,[8]; 0.1250 kg/ha,9.0
same,MOOVA herbicidal effect rating,[8]; 0.2500 kg/ha,9.0
same,SAGPY herbicidal effect rating,[9]; 0.0313 kg/ha,3.5
same,SAGPY herbicidal effect rating,[9]; 0.0625 kg/ha,3.5
same,SAGPY herbicidal effect rating,[9]; 0.1250 kg/ha,3.5
same,SAGPY herbicidal effect rating,[9]; 0.2500 kg/ha,4.5
same,ECHORC herbicidal effect rating,[10]; 0.0313 kg/ha,6.0
same,ECHORC herbicidal effect rating,[10]; 0.0625 kg/ha,7.0
same,ECHORC herbicidal effect rating,[10]; 0.1250 kg/ha,7.0
same,ECHORC herbicidal effect rating,[10]; 0.2500 kg/ha,8.0
same,herbicidal rating ABUTH,[11]; rate 0.0158 kg/ha,9.0
same,herbicidal rating ABUTH,[11]; rate 0.0315 kg/ha,9.0
same,herbicidal rating ABUTH,[11]; rate 0.0630 kg/ha,9.0
same,herbicidal rating CASOB,[12]; rate 0.0158 kg/ha,1.0
same,herbicidal rating CASOB,[12]; rate 0.0315 kg/ha,1.0
same,herbicidal rating CASOB,[12]; rate 0.0630 kg/ha,1.0
same,Preemergence herbicidal rating TRZAWR,[13]; rate 0.0156 kg/ha,0.0
same,Preemergence herbicidal rating TRZAWR,[13]; rate 0.0313 kg/ha,0.0
same,Preemergence herbicidal rating TRZAWR,[13]; rate 0.0625 kg/ha,0.0
same,Preemergence herbicidal rating TRZAWR,[13]; rate 0.1250 kg/ha,1.0
same,Preemergence herbicidal rating TRZAWR,[13]; rate 0.2500 kg/ha,3.0
